Measured values taken from US8278452B2, “Heterocyclic compounds and compositions as c-kit and PDGFR kinase inhibitors” (IRM LLC, priority 2008, dated 2012).

Each compound was assayed on Mo7e cells which endogenously express c-kit (assay: Mo7e assay: inhibition of SCF dependent proliferation (MTT)). Settings: Table 1; SCF stimulated Mo7e cells, 48 hours, MTT.
Assay type: cell-based
Method: The compounds described herein are tested for inhibition of SCF dependent proliferation using Mo7e cells which endogenously express c-kit in a 96 well format. Two-fold serially diluted test compounds (Cmax=10 μM) are evaluated for their antiproliferative activity of Mo7e cells stimulated with human recombinant SCF. After 48 hours of incubation at 37° C., cell viability is measured by using a MTT colorimetric assay from Promega. IC50 values for compounds of the invention are quoted in table 1, supra.

SMILES	IC50 [nM]
Cc1cc2c(cn1)cc(-c1cc(Nc3noc(C4CC(=O)C4)n3)ccc1C)c(=O)n2C [Compound A72, 1,7-dimethyl-3-(2-methyl-5-{[5-(3-oxocyclobutyl)-1,2,4-oxadiazol-3-yl]amino}phenyl)-1,2-dihydro-1,6-naphthyridin-2-one]	204
Cc1cc2c(cn1)cc(-c1cc(Nc3nc(-c4ccccc4)no3)ccc1C)c(=O)n2C [Compound E1, 1,7-dimethyl-3-{2-methyl-5-[(3-phenyl-1,2,4-oxadiazol-5-yl)amino]phenyl}-1,2-dihydro-1,6-naphthyridin-2-one]	423
CC(=O)c1ccc(-c2nc(Nc3ccc(C)c(-c4cc5cnc(C)cc5n(C)c4=O)c3)no2)cc1 [Compound A95, 3-(5-{[5-(4-acetylphenyl)-1,2,4-oxadiazol-3-yl]amino}-2-methylphenyl)-1,7-dimethyl-1,2-dihydro-1,6-naphthyridin-2-one]	310
COc1ccc(-c2nc(Nc3ccc(C)c(-c4cc5cnc(C)cc5n(C)c4=O)c3)no2)nc1 [Compound A103, 3-(5-{[5-(5-methoxypyridin-2-yl)-1,2,4-oxadiazol-3-yl]amino}-2-methylphenyl)-1,7-dimethyl-1,2-dihydro-1,6-naphthyridin-2-one]	82
Cc1cc2c(cn1)cc(-c1cc(Nc3noc(-c4csc(-c5cccnc5)n4)n3)ccc1C)c(=O)n2C [Compound A44, 1,7-dimethyl-3-[2-methyl-5-({5-[2-(pyridin-3-yl)-1,3-thiazol-4-yl]-1,2,4-oxadiazol-3-yl}amino)phenyl]-1,2-dihydro-1,6-naphthyridin-2-one]	456
CCOCc1nc(Nc2ccc(C)c(-c3cc4cnc(C)cc4n(C)c3=O)c2)no1 [Compound A74, 3-(5-{[5-(ethoxymethyl)-1,2,4-oxadiazol-3-yl]amino}-2-methylphenyl)-1,7-dimethyl-1,2-dihydro-1,6-naphthyridin-2-one]	296
Cc1cc2c(cn1)cc(-c1cc(Nc3noc(C4CCCCO4)n3)ccc1C)c(=O)n2C (stereo not drawn) [Compound A85, 1,7-dimethyl-3-(2-methyl-5-{[5-(oxan-2-yl)-1,2,4-oxadiazol-3-yl]amino}phenyl)-1,2-dihydro-1,6-naphthyridin-2-one]	79
Cc1cc2c(cn1)cc(-c1cc(Nc3noc(C(O)C(C)C)n3)ccc1C)c(=O)n2C (stereo in doubt) [Compound A93, 3-[5-({5-[(1S)-1-hydroxy-2-methylpropyl]-1,2,4-oxadiazol-3-yl}amino)-2-methylphenyl]-1,7-dimethyl-1,2-dihydro-1,6-naphthyridin-2-one]	283
Cc1cc2c(cn1)cc(-c1cc(Nc3noc([C@@]4(C)CCCO4)n3)ccc1C)c(=O)n2C [Compound A97, 1,7-dimethyl-3-[2-methyl-5-({5-[(2R)-2-methyloxolan-2-yl]-1,2,4-oxadiazol-3-yl}amino)phenyl]-1,2-dihydro-1,6-naphthyridin-2-one]	160
Cc1cc2c(cn1)cc(-c1cc(Nc3noc(-c4cccnc4)n3)ccc1C)c(=O)n2C [Compound A10, 1,7-dimethyl-3-(2-methyl-5-{[5-(pyridin-3-yl)-1,2,4-oxadiazol-3-yl]amino}phenyl)-1,2-dihydro-1,6-naphthyridin-2-one]	145
Cc1cc2c(cn1)cc(-c1cc(Nc3cc(-c4ccc(Cl)cc4Cl)on3)ccc1C)c(=O)n2C [Compound D7]	401
Cc1cc2c(cn1)cc(-c1cc(Nc3noc(-c4ccc(F)cc4Cl)n3)ccc1C)c(=O)n2C [Compound A81, 3-(5-{[5-(2-chloro-4-fluorophenyl)-1,2,4-oxadiazol-3-yl]amino}-2-methylphenyl)-1,7-dimethyl-1,2-dihydro-1,6-naphthyridin-2-one]	237
Cc1cc2c(cn1)cc(-c1cc(Nc3noc(-c4nc(C)oc4C)n3)ccc1C)c(=O)n2C [Compound A45, 3-(5-{[5-(2,5-dimethyl-1,3-oxazol-4-yl)-1,2,4-oxadiazol-3-yl]amino}-2-methylphenyl)-1,7-dimethyl-1,2-dihydro-1,6-naphthyridin-2-one]	263
Cc1cc2c(cn1)cc(-c1cc(Nc3cc(-c4ccc(F)cc4)on3)ccc1C)c(=O)n2C [Compound D11]	82
Cc1cc2c(cn1)cc(-c1cc(Nc3noc(CC(C)O)n3)ccc1C)c(=O)n2C (stereo not drawn) [Compound A55, 3-(5-{[5-(2-hydroxypropyl)-1,2,4-oxadiazol-3-yl]amino}-2-methylphenyl)-1,7-dimethyl-1,2-dihydro-1,6-naphthyridin-2-one]	294
Cc1cc2c(cn1)cc(-c1cc(Nc3noc(-c4ccc(CO)cc4)n3)ccc1C)c(=O)n2C [Compound A43, 3-[5-({5-[4-(hydroxymethyl)phenyl]-1,2,4-oxadiazol-3-yl}amino)-2-methylphenyl]-1,7-dimethyl-1,2-dihydro-1,6-naphthyridin-2-one]	386
Cc1cc2c(cn1)cc(-c1cc(Nc3noc(-c4ccccc4C#N)n3)ccc1C)c(=O)n2C [Compound A38, 2-(3-{[3-(1,7-dimethyl-2-oxo-1,2-dihydro-1,6-naphthyridin-3-yl)-4-methylphenyl]amino}-1,2,4-oxadiazol-5-yl)benzonitrile]	325
Cc1cc2c(cn1)cc(-c1cc(Nc3noc(C(C)Oc4ccccc4)n3)ccc1C)c(=O)n2C (stereo not drawn) [Compound A96, 1,7-dimethyl-3-(2-methyl-5-{[5-(1-phenoxyethyl)-1,2,4-oxadiazol-3-yl]amino}phenyl)-1,2-dihydro-1,6-naphthyridin-2-one]	419
Cc1cc2c(cn1)cc(-c1cc(Nc3noc([C@H]4CCCCO4)n3)ccc1C)c(=O)n2C [Compound A99, 1,7-dimethyl-3-[2-methyl-5-({5-[(2R)-oxan-2-yl]-1,2,4-oxadiazol-3-yl}amino)phenyl]-1,2-dihydro-1,6-naphthyridin-2-one]	100
Cc1cc2c(cn1)cc(-c1cc(Nc3noc(C4CCCN4C)n3)ccc1C)c(=O)n2C (stereo not drawn) [Compound A23, 1,7-dimethyl-3-(2-methyl-5-{[5-(1-methylpyrrolidin-2-yl)-1,2,4-oxadiazol-3-yl]amino}phenyl)-1,2-dihydro-1,6-naphthyridin-2-one]	208
Cc1cc2c(cn1)cc(-c1cc(Nc3noc(-c4ccc(OC(F)(F)F)cc4)n3)ccc1C)c(=O)n2C [Compound A41, 1,7-dimethyl-3-[2-methyl-5-({5-[4-(trifluoromethoxy)phenyl]-1,2,4-oxadiazol-3-yl}amino)phenyl]-1,2-dihydro-1,6-naphthyridin-2-one]	53
Cc1cc2c(cn1)cc(-c1cc(Nc3noc(CC(C)(C)C)n3)ccc1C)c(=O)n2C [Compound A19, 3-(5-{[5-(2,2-dimethylpropyl)-1,2,4-oxadiazol-3-yl]amino}-2-methylphenyl)-1,7-dimethyl-1,2-dihydro-1,6-naphthyridin-2-one]	216
Cc1cc2c(cn1)cc(-c1cc(Nc3nc(C(C)C)no3)ccc1C)c(=O)n2C [Compound E3, 3-(5-(3-isopropyl-1,2,4-oxadiazol-5-ylamino)-2-methylphenyl)-1,7-dimethyl-1,6-naphthyridin-2(1H)-one]	181
Cc1cc2c(cn1)cc(-c1cc(Nc3noc([C@@H]4CCCCO4)n3)ccc1C)c(=O)n2C [Compound A100, 1,7-dimethyl-3-[2-methyl-5-({5-[(2S)-oxan-2-yl]-1,2,4-oxadiazol-3-yl}amino)phenyl]-1,2-dihydro-1,6-naphthyridin-2-one]	70
